Reference: patent US20260102383A1, “LPAR1 Inhibitors” (AbbVie Inc., priority 2024, published 2026)

Target: T1, human LPAR1 (Homo sapiens, UniProt Q92633)
T1 construct: host or cells: TangoEDG2-bla U2OS cells
Assay: Arrestin assay (Arrestin Reporter EDG2-bla U2OS), inhibition of LPA-stimulated signal
Format: cell-based
Conditions: TangoEDG2-bla U2OS cells expressing human LPAR1; 0.25 μM LPA; read-out: Arrestin Reporter EDG2-bla U2OS Human IC50
Procedure, shortened: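 TangoEDG2-bla U2OS cells (1×10^4/well, plated 18-20 h) were preincubated 1 h at 37 °C with compound (12-point, 3-fold, 10 μM to 0.00006 μM), then stimulated 3 h with 0.25 μM LPA final. LiveBLAzer FRET B/G 460/530 nm emission ratio gave % inhibition; IC50 from 4-parameter variable-slope fit.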

T1 sequence (Q92633 whole entry): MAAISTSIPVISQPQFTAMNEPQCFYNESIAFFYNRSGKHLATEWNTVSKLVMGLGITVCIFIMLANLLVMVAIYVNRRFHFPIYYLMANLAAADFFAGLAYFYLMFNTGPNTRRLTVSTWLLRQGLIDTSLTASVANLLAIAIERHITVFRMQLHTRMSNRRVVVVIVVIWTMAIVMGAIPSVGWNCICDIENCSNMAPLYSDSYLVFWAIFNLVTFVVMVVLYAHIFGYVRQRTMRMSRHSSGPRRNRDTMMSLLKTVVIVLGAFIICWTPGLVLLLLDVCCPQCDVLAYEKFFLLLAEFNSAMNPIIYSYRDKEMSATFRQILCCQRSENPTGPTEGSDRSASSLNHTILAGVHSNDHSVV

Row | IC50 | Structure (SMILES)
1 | 0.0436 µM | CC(C)c1ccnn1C1(C(=O)Nc2ccc(Cl)cc2OC(F)F)CCN([C@H]2C[C@@](C)(C(=O)O)C2)CC1 [Compound 77, (1s,38)-3-[4-[[4-chloro-2-(difluoromethoxy)phenyl]carbamoyl]-4-(5-isopropylpyrazol-1-yl)-1-piperidyl]-1-methyl-cyclobutanecarboxylic acid]

Same assay, conditions: TangoEDG2-bla U2OS cells expressing human LPAR1; 0.25 μM LPA; read-out: Arrestin Reporter EDG2-bla U2OS Human Merged IC50

Row | IC50 | Structure (SMILES)
2 | 0.0559 µM | CCO[C@H](CN1CCC(C(=O)Nc2ccc(Cl)cc2OC(F)F)(n2nccc2C(C)C)CC1)C(=O)O [Compound 144, (2R)-3-[4-[[4-chloro-2-(difluoromethoxy)phenyl]carbamoyl]-4-(5-isopropylpyrazol-1-yl)-1-piperidyl]-2-ethoxy-propanoic acid]
3 | 0.119 µM | CC(C)c1ccnn1C1(C(=O)Nc2ccc(Cl)cc2OC(F)F)CCN(CC2(C(=O)O)CCN(C(=O)C[C@H]3CCOC3)CC2)CC1 [Compound 92, 4-[[4-[[4-chloro-2-(difluoromethoxy)phenyl]carbamoyl]-4-(5-isopropylpyrazol-1-yl)-1-piperidyl]methyl]-1-[2-[(3R)-tetrahydrofuran-3-yl]acetyl]piperidine-4-carboxylic acid]
4 | 0.0219 µM | CC(C)CC(=O)N1CCC(CN2CCC(C(=O)Nc3ccc(Cl)cc3OC(F)F)(n3nccc3C(C)C)CC2)(C(=O)O)CC1 [Compound 82, 4-[[4-[[4-chloro-2-(difluoromethoxy)phenyl]carbamoyl]-4-(5-isopropylpyrazol-1-yl)-1-piperidyl]methyl]-1-(3-methylbutanoyl)piperidine-4-carboxylic acid]
5 | 0.0515 µM | CCC(=O)N1CC(CN2CCC(C(=O)Nc3ccc(Cl)cc3OC(F)F)(n3nccc3C(C)C)CC2)(C(=O)O)C1 [Compound 64, 3-[[4-[[4-chloro-2-(difluoromethoxy)phenyl]carbamoyl]-4-(5-isopropylpyrazol-1-yl)-1-piperidyl]methyl]-1-propanoyl-azetidine-3-carboxylic acid]
6 | 0.0347 µM | CC(C)c1ccnn1C1(C(=O)Nc2ccc(Cl)cc2OC(F)F)CCN(CC(C(=O)O)C2COCCOC2)CC1 (stereo not shown) [Compound 196, 3-[4-[[4-chloro-2-(difluoromethoxy)phenyl]carbamoyl]-4-(5-isopropylpyrazol-1-yl)-1-piperidyl]-2-(1,4-dioxepan-6-yl)propanoic acid]
7 | 0.0676 µM | CC(C)c1ccnn1C1(C(=O)Nc2ccc(Cl)cc2OC(F)F)CCN(C[C@@H](C(=O)O)[C@H]2C[C@@H](C)O[C@@H](C)C2)CC1 [Compound 195, (25)-3-[4-[[4-chloro-2-(difluoromethoxy)phenyl]carbamoyl]-4-(5-isopropylpyrazol-1-yl)-1-piperidyl]-2-[(2R,4r,6S)-2,6-dimethyltetrahydropyran-4-yl]propanoic acid]
8 | 0.00554 µM | CC(C)c1ccnn1C1(C(=O)Nc2ccc(Cl)cc2OC(F)F)CCN(CC2(C(=O)O)CCN(C(=O)OCC(C)(C)C)CC2)CC1 [Compound 90, 4-[[4-[[4-chloro-2-(difluoromethoxy)phenyl]carbamoyl]-4-(5-isopropylpyrazol-1-yl)-1-piperidyl]methyl]-1-(2,2-dimethylpropoxycarbonyl) piperidine-4-carboxylic acid]
9 | 0.0312 µM | CC(C)c1c(Cl)cnn1C1(C(=O)Nc2ccc(Cl)cc2OC(F)F)CCN(C[C@H](C(=O)O)C2CCOCC2)CC1 (single isomer, unassigned) [Compound 198]
10 | 0.0825 µM | CC1(C)CCc2cnn(C3(C(=O)Nc4ccc(Cl)cc4OC(F)F)CCN(C[C@@H]4CC[C@H]4C(=O)O)CC3)c21 [Compound 115, (1R.2R)-2-[[4-[[4-chloro-2-(difluoromethoxy)phenyl]carbamoyl]-4-(6,6-dimethyl-4,5-dibydrocyclopenta[c]pyrazol-1-yl)-1-piperidyl]methyl] cyclobutanecarboxylic acid]
11 | 0.0311 µM | COc1cnn([C@H](CN2CCC(C(=O)Nc3ccc(Cl)cc3OC(F)F)(n3nccc3C(C)C)CC2)C(=O)O)c1 [Compound 224, (2R)-3-[4-[[4-chloro-2-(difluoromethoxy)phenyl]carbamoyl]-4-(5-isopropylpyrazol-1-yl)-1-piperidyl]-2-(4-methoxypyrazol-1-yl)propanoic acid]
12 | 0.0595 µM | CC(C)c1ccnn1C1(C(=O)Nc2ccc(Cl)cc2OC(F)F)CCN(C[C@@H](C(=O)O)[C@H](C)O)CC1 [Compound 223, (2R,3S)-2-[[4-[[4-chloro-2-(difluoromethoxy)phenyl]carbamoyl]-4-(5-isopropylpyrazol-1-yl)-1-piperidyl]methyl]-3-hydroxy-butanoic acid]
13 | 0.0202 µM | CC(C)c1ccnn1C1(C(=O)Nc2ccc(Cl)cc2OC(F)F)CCN(C[C@@H](C)C(=O)O)CC1 [Compound 86, (2R)-3-[4-[[4-chloro-2-(difluoromethoxy)phenyl]carbamoyl]-4-(5-isopropylpyrazol-1-yl)-1-piperidyl]-2-methyl-propanoic acid]
14 | 0.122 µM | CC(C)c1ccnn1C1(C(=O)Nc2ccc(Cl)cc2OC(F)F)CCN(C[C@]2(C(=O)O)CC[C@](C)(O)CC2)CC1 [Compound 175, (1r,4r)-1-[[4-[[4-chloro-2-(difluoromethoxy)phenyl]carbamoyl]-4-(5-isopropylpyrazol-1-yl)-1-piperidyl]methyl]-4-hydroxy-4-methyl-cyclohexanecarboxylic acid]
15 | 0.0379 µM | COCCC(CN1CCC(C(=O)Nc2ccc(Cl)cc2OC(F)F)(n2nccc2C(C)C)CC1)C(=O)O (stereo not shown) [Compound 142, 2-[[4-[[4-chloro-2-(difluoromethoxy)phenyl]carbamoyl]-4-(5-isopropylpyrazol-1-yl)-1-piperidyl]methyl]-4-methoxy-butanoic acid]
16 | 0.0383 µM | COCCC(CN1CCC(C(=O)Nc2ccc(Cl)cc2OC(F)F)(n2ncc(F)c2C(C)C)CC1)C(=O)O (stereo not shown) [Compound 188, 2-[[4-[[4-chloro-2-(difluoromethoxy)phenyl]carbamoyl]-4-(4-fluoro-5-isopropyl-pyrazol-1-yl)-1-piperidyl]methyl]-4-methoxy-butanoic acid]
17 | 0.0623 µM | CC(C)c1ccnn1C1(C(=O)Nc2ccc(Cl)cc2OC(F)F)CCN(C[C@H](CN2CCOCC2)C(=O)O)CC1 [Compound 239, (2R)-2-[[4-[[4-chloro-2-(difluoromethoxy)phenyl]carbamoyl]-4-(5-isopropylpyrazol-1-yl)-1-piperidyl]methyl]-3-morpholino-propanoic acid]
18 | 0.0926 µM | CC(C)c1ccnn1C1(C(=O)Nc2ccc(Cl)cc2OC(F)F)CCN(CC(C(=O)O)C2CCOC(C)(C)C2)CC1 (stereo not shown) [Compound 171, 3-[4-[[4-chloro-2-(difluoromethoxy)phenyl]carbamoyl]-4-(5-isopropylpyrazol-1-yl)-1-piperidyl]-2-(2,2-dimethyltetrahydropyran-4-yl)propanoic acid]
19 | 0.0135 µM | CC(C)c1ccnn1C1(C(=O)Nc2ccc(Cl)cc2OC(F)F)CCN(CC2(C(=O)O)CCN(C(=O)CC34CC(C3)C4)CC2)CC1 [Compound 53, 1-[2-(1-bicyclo[1.1.1]pentanyl)acetyl]-4-[[4-[[4-chloro-2-(difluoromethoxy)phenyl]carbamoyl]-4-(5-isopropylpyrazol-1-yl)-1-piperidyl]methyl]piperidine-4-carboxylic acid]
20 | 0.129 µM | CC(C)c1ccnn1C1(C(=O)Nc2ccc(Cl)cc2OC(F)F)CCN(CC2(C(=O)O)CCN(C(=O)C34CC(C#N)(C3)C4)CC2)CC1 [Compound 80, 4-[[4-[[4-chloro-2-(difluoromethoxy)phenyl]carbamoyl]-4-(5-isopropylpyrazol-1-yl)-1-piperidyl]methyl]-1-(3-cyanobicyclo[1.1.1]pentane-1-carbonyl)piperidine-4-carboxylic acid]
21 | 0.0809 µM | CCC(=O)N1CC[C@](CN2CCC(C(=O)Nc3ccc(Cl)cc3OC(F)F)(n3nccc3C(C)C)CC2)(C(=O)O)C1 [Compound 101, (3R)-3-[[4-[[4-chloro-2-(difluoromethoxy)phenyl]carbamoyl]-4-(5-isopropylpyrazol-1-yl)-1-piperidyl]methyl]-1-propanoyl-pyrrolidine-3-carboxylic acid]
22 | 0.0347 µM | CC(C)c1ccnn1C1(C(=O)Nc2ccc(Cl)cc2OC(F)F)CCN(CC(CO)C(=O)O)CC1 (stereo not shown) [Compound 120, 2-[[4-[[4-chloro-2-(difluoromethoxy)phenyl]carbamoyl]-4-(5-isopropylpyrazol-1-yl)-1-piperidyl]methyl]-3-hydroxy-propanoic acid]
23 | 0.00513 µM | COc1cccc([C@@H](CN2CCC(C(=O)Nc3ccc(Cl)cc3OC(F)F)(n3nccc3C(C)C)CC2)C(=O)O)c1 [Compound 33, (2S)-3-[4-[[4-chloro-2-(difluoromethoxy)phenyl]carbamoyl]-4-(5-isopropylpyrazol-1-yl)-1-piperidyl]-2-(3-methoxyphenyl)propanoic acid]
24 | 0.0133 µM | CC(C)OC(=O)N1CCC(CN2CCC(C(=O)Nc3ccc(Cl)cc3OC(F)F)(n3nccc3C(C)C)CC2)(C(=O)O)CC1 [Compound 88]
25 | 0.0331 µM | COC[C@H](CN1CCC(C(=O)Nc2ccc(Cl)cc2OC(F)F)(n2ncc(F)c2C(C)C)CC1)C(=O)O (single isomer, unassigned) [Compound 170]
26 | 0.0399 µM | CO[C@H]1C[C@@H]([C@H](CN2CCC(C(=O)Nc3ccc(Cl)cc3OC(F)F)(n3nccc3C(C)C)CC2)C(=O)O)C1 [Compound 226]
27 | 0.0165 µM | CC(C)c1ccnn1C1(C(=O)Nc2ccc(Cl)cc2OC(F)F)CCN(CC(CN2CCOC(F)(F)C2)C(=O)O)CC1 (stereo not shown) [Compound 237, 2-[[4-[[4-chloro-2-(difluoromethoxy)phenyl]carbamoyl]-4-(5-isopropylpyrazol-1-yl)-1-piperidyl]methyl]-3-(2,2-difluoromorpholin-4-yl)propanoic acid]

Row | Structure (SMILES) | IC50
28 | CC(C)c1ccnn1C1(C(=O)Nc2ccc(Cl)cc2OC(F)F)CCN(CC2(C(=O)O)CCN(C(=O)Oc3ccc(F)cc3)CC2)CC1 [Compound 10, 4-[[4-[[4-chloro-2-(difluoromethoxy)phenyl]carbamoyl]-4-(5-isopropylpyrazol-1-yl)-1-piperidyl]methyl]-1-(4-fluorophenoxy)carbonyl-piperidine-4-carboxylic acid] | 0.00753 µM
